Reference: patent publication US20240327456A1, “CANCER THERAPEUTICS” (UNIVERSITAT DE BARCELONA, priority 2021, published 2024)
Square brackets hold non-standard residues; d marks the D form. Peptide text beside a SMILES is read from it. * marks the point of attachment. Chg = N[CH](C(=O)O)C1CCCCC1; X1 = C1CCC2(CC1)CCN(*)CC2; PhAc = O=C(Cc1ccccc1)*

Key:
[1] = Solubility in PBS with 15% β-cyclodextrin; type: physicochemical; settings: 1 mM, 24 hours agitation, supernatant by HPLC; mean±SD
Description: xxxxx Furthermore, an additional effort was done to reevaluate those peptidomimetics from the first generation that were not soluble in the in vitro assay conditions or formed aggregates as described above when incubated with the RPE cells.
We then put these peptidomimetics under constant agitation for 24 hours. […] Data are expressed as the mean±SD.

[2] = Solubility when diluted in cell medium (in vitro assay conditions); settings: cell culture assay conditions

Compound: CC(C)CC(NC(=O)C(Cc1c[nH]c2ccccc12)NC(=O)C(NC(=O)C(CCCCN)NC(=O)Cc1ccccc1)C1CCCCC1)C(=O)N1CCC2(CCCCC2)CC1 (centres unmarked) [IP-14-06] (PhAc-K[Chg]WL-X1; configuration not given here)
- Conc. in PBS β-cyclodextrin 15% [1]: 844 ± 4 µM
- Solubility when diluted in cell medium [2]: not soluble
